# “Also recorded” adds a separate entry of the source. Where two headings read alike, the source gives them in different places.
# Columns and labels:
# [1] = Transmammary permeation across porcine mammary papilla with and without removal of the keratin plug (Experiments 7-10); type: in vitro ADME; conditions: porcine mammary papilla
# Excerpt: Keratin plug was removed from human and porcine mammary papilla using an alcoholic cotton swab. The swab was gently rubbed on the surface of the mammary papilla. The mammary papilla was observed under the microscope to confirm the removal of the plug from the surface and to confirm that epidermis of the mammary papilla was not damaged during this procedure.
# The drug solutions were spiked with radioactive substances. […] Receptor medium was PBS with 7.4 pH.
# (§1) Mammary papillae tissues were thawed. Keratin plugs were removed from the mammary papilla tissues using swabs with ethanol. […] The drug solutions were spiked with radioactive substances. […] Receptor medium was PBS with 7.4 pH.
# as §1
# Mammary papillae tissues were thawed. Keratin plugs were removed from the mammary papilla tissues using swabs with ethanol. […] The drug solutions were spike with radioactive substances. […] Receptor medium was PBS with 7.4 pH.
# [2] = Biodistribution of 5FU in rats 30 minutes after intraductal and intravenous injection (Experiment 24); type: in vivo, Sprague-Dawley rats; conditions: rat; for Drug per gram tissue of mammary papilla: 30 min, n=1
# Procedure: (§2) The hair on the skin of the rats was removed using a hair removing formulation. The treatment was given after 24 hours to make sure the skin is recovered if damaged or altered due to the hair removal treatment.
# (§3) Next day, the rats were placed under controlled Isoflurane anesthesia. Now 500 μl of Blood samples were collected from each animal before beginning the experiment, by retro-orbital technique, as a control. For intraductal injection the mammary papilla to be treated was gently wiped with an alcoholic cotton swab to remove the keratin plug. Now 50 μl of 5FU solution in saline (10 mg/ml) was injected into the duct of the mammary papilla under a stereo-microscope. After this the animal was removed from anesthesia and placed into the cage. In case of intravenous injection, similar to intraductal, 50 μl of 5FU solution in saline (10 mg/ml) was injected into the tail vein and the animal was placed into the cage for 30 minutes. At the end of 30 minutes 500 μl of blood sample was collected. After this the rats were euthanized. Now for intraductal injection the treated area of the rat was cleaned with water. The rat was opened from the abdominal skin. Treated mammary papilla and mammary gland existing underneath the treated mammary papilla was excised and collected. Lateral mammary papilla and mammary gland was collected along with distant mammary papilla and mammary gland, as controls. Followed by this other organs including heart, brain, liver, spleen, kidneys and lungs were collected. In case of intravenous treatment, blood was collected and mammary tissues (mammary papilla, mammary gland and surrounding breast skin) was collected along with other organs including heart, brain, liver, spleen, kidneys and lungs. All the tissues were weighed and then mechanically homogenized to extract the drug. The homogenates were mixed with hydrogen peroxide solution (30% v/v) and then radioactivity into the samples was measured by liquid scintillation counting. Similarly blood samples were centrifuged and the supernatants were analyzed by scintillation counting. Results may be seen in FIG. 50, Tables 30-31.
# [3] = rat
# [4] = cited from earlier work
# [5] = Biodistribution of 5FU in rats 6 hours after intraductal and intravenous injection (Experiment 23); type: in vivo, Sprague-Dawley rats; conditions: rat
# Procedure: as §2
# as §3, with “plug. Now 100 μl of” for “plug. Now 50 μl of”, “to intraductal, 100 μl of” for “to intraductal, 50 μl of”, “cage for 6 hours. At the” for “cage for 30 minutes. At the”, “end of 6 hours 500 μl” for “end of 30 minutes 500 μl”, “in FIG. 49, Table 28 and Table 29.” for “in FIG. 50, Tables 30-31.”
compound,measurement,setting,value
"O=c1[nH]cc(F)c(=O)[nH]1 [5FU, 5-fluorouracil]",Transmammary flux,[1],10.79 μg/sq·cm/h
same,Change of permeation upon removal of the keratin plugs (in words),"[1]; donor in 50:50 ethanol:water, 48 hours","increases slightly, though statistically not significant"
same,"Drug per gram tissue, mammary gland",[2]; ID (30 min),0.018 µmol/g
same,"Drug per gram tissue, surrounding skin",[2]; ID (30 min),0.03 µmol/g
same,"Drug per gram tissue, mammary gland",[2]; IV (30 min),0.009 µmol/g
same,"Drug per gram tissue, surrounding skin",[2]; IV (30 min),0 µmol/g
same,5FU in vital organs of the body,"[2]; intraductal and intravenous injection, 30 minutes","significant amount of 5FU in vital organs of the body including kidneys, liver and brain"
same,Drug per gram tissue of mammary papilla,[2]; intraductal injection 50 μl of 10 mg/ml 5FU in saline,0.16 µmol/g
same,Drug per gram tissue of mammary papilla,[2]; intravenous injection 50 μl of 10 mg/ml 5FU in saline,0 µmol/g
same,Profile of 5FU in plasma,[3]; intravenous injection,quickly eliminating from the blood
same,Retention of 5FU in mammary papilla,"[3]; intravenous injection, 30 minutes",some accumulation of 5FU into the mammary papilla
same,"5FU retention into the vital organs (kidneys, heart, liver, lungs, spleen and brain)",[3]; topical application (transmammary and transdermal) vs intravenous injection,several folds lower than that after intravenous injection
same,5FU in blood / plasma,"[3]; topical delivery (transmammary and transdermal), 6 h",no amount of 5FU was observed into the blood; also recorded: below the level of detection
same,Retention of 5FU in mammary papilla,"[3]; transdermal treatment, 6 h",no 5FU was observed into the mammary papilla
same,Amount of 5FU in mammary gland,"[3]; transmammary treatment 250 μl of 10 mg/ml for 6 h, compared with intravenous and transdermal",highest amount of 5FU in mammary gland
same,Retention of 5FU in mammary papilla,"[3]; transmammary treatment, 6 h",significant retention of 5FU into the mammary papilla
same,Log P,[4],−0.89
same,5FU in vital organs of the body,[5]; intraductal and intravenous injection,"significant amount of 5FU in vital organs of the body including kidneys, liver and brain"
same,"Drug per gram tissue, mammary gland",[5]; intraductal injection,0 µmol/g
same,"Drug per gram tissue, surrounding skin",[5]; intraductal injection,0.23 µmol/g
same,Drug per gram tissue of mammary papilla,[5]; intraductal injection 100 μl of 10 mg/ml 5FU in saline,1.36 µmol/g
same,"Drug per gram tissue, mammary gland",[5]; intravenous injection,0 µmol/g
same,"Drug per gram tissue, surrounding skin",[5]; intravenous injection,0 µmol/g
same,Drug per gram tissue of mammary papilla,[5]; intravenous injection 100 μl of 10 mg/ml 5FU in saline,0 µmol/g

# Source: patent publication US9220680B2, “Compositions and methods for localized drug delivery through mammary papillae” (South Dakota State University, priority 2012, dated 2015)
